Source: PubChem BioAssay (NCI)
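1) Cells in 96-well plates. 2) Compound, 48 h, 5 concentrations. 3) Linear interpolation between surrounding doses. 4) Unreached endpoint = highest concentration. Abbreviation: GI50, concentration required for 50% inhibition of growth. TGI: total growth inhibition.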

What was measured:
Assay in all cases: NCI-60 cell line screen, 48 h
NCI-H23 lung = tested on: NCI-H23 lung
COLO 205 colon = tested on: COLO 205 colon
CAKI-1 renal = tested on: CAKI-1 renal
SK-MEL-2 melanoma = tested on: SK-MEL-2 melanoma
KM12 colon = tested on: KM12 colon
K-562 leukemia = tested on: K-562 leukemia
HS 578T breast = tested on: HS 578T breast
T-47D breast = tested on: T-47D breast
NCI-H226 lung = tested on: NCI-H226 lung
SK-MEL-28 melanoma = tested on: SK-MEL-28 melanoma
PC-3 prostate = tested on: PC-3 prostate
OVCAR-8 ovarian = tested on: OVCAR-8 ovarian
SR leukemia = tested on: SR leukemia
HT29 colon = tested on: HT29 colon
EKVX NSCLC = tested on: EKVX NSCLC
CCRF-CEM leukemia = tested on: CCRF-CEM leukemia
NCI-H522 lung = tested on: NCI-H522 lung
SK-MEL-5 melanoma = tested on: SK-MEL-5 melanoma
HCT-116 colon = tested on: HCT-116 colon
TK-10 renal = tested on: TK-10 renal
NCI/ADR-RES ovarian = tested on: NCI/ADR-RES ovarian
A498 renal = tested on: A498 renal
U251 CNS = tested on: U251 CNS
MDA-MB-231 breast = tested on: MDA-MB-231 breast
NCI-H460 lung = tested on: NCI-H460 lung
UACC-62 melanoma = tested on: UACC-62 melanoma
OVCAR-5 ovarian = tested on: OVCAR-5 ovarian
SK-OV-3 ovarian = tested on: SK-OV-3 ovarian
SNB-75 CNS = tested on: SNB-75 CNS
IGROV1 ovarian = tested on: IGROV1 ovarian
HCT-15 colon = tested on: HCT-15 colon
HL-60(TB) leukemia = tested on: HL-60(TB) leukemia
HOP-92 NSCLC = tested on: HOP-92 NSCLC
OVCAR-4 ovarian = tested on: OVCAR-4 ovarian
SF-539 CNS = tested on: SF-539 CNS
RPMI-8226 leukemia = tested on: RPMI-8226 leukemia
SW-620 colon = tested on: SW-620 colon
OVCAR-3 ovarian = tested on: OVCAR-3 ovarian
MALME-3M melanoma = tested on: MALME-3M melanoma
SN12C renal = tested on: SN12C renal
BT-549 breast = tested on: BT-549 breast
A549 NSCLC = tested on: A549 NSCLC
UACC-257 melanoma = tested on: UACC-257 melanoma
ACHN renal = tested on: ACHN renal
HCC-2998 colon = tested on: HCC-2998 colon
RXF 393 renal = tested on: RXF 393 renal
LOX IMVI melanoma = tested on: LOX IMVI melanoma
DU-145 prostate = tested on: DU-145 prostate
M14 melanoma = tested on: M14 melanoma
UO-31 renal = tested on: UO-31 renal
786-0 renal = tested on: 786-0 renal
MOLT-4 leukemia = tested on: MOLT-4 leukemia
SF-268 CNS = tested on: SF-268 CNS
HOP-62 NSCLC = tested on: HOP-62 NSCLC
MCF7 breast = tested on: MCF7 breast
SNB-19 CNS = tested on: SNB-19 CNS
SF-295 CNS = tested on: SF-295 CNS
MDA-MB-435 = tested on: MDA-MB-435

With `CC1(C)N=C(N)N=C(N)N1c1ccc(Cl)c(Cl)c1` the GI50 (NCI-H23 lung) was 0.453 µM, the TGI (NCI-H23 lung) was greater than 100 µM and the GI50 (COLO 205 colon) was 3.56 µM. For the same molecule, the TGI (COLO 205 colon) was greater than 100 µM, the GI50 (CAKI-1 renal) was 12.5 µM and the TGI (CAKI-1 renal) was greater than 100 µM. For the same molecule, the GI50 (SK-MEL-2 melanoma) was greater than 100 µM, the TGI (SK-MEL-2 melanoma) was greater than 100 µM and the GI50 (KM12 colon) was 0.648 µM. For the same molecule, the TGI (KM12 colon) was greater than 100 µM, the GI50 (K-562 leukemia) was 0.0636 µM and the TGI (K-562 leukemia) was greater than 100 µM. For the same molecule, the GI50 (HS 578T breast) was greater than 27.3 µM, the TGI (HS 578T breast) was greater than 100 µM and the GI50 (T-47D breast) was greater than 45.8 µM. For the same molecule, the TGI (T-47D breast) was greater than 100 µM, the TGI (NCI-H226 lung) was greater than 100 µM and the GI50 (SK-MEL-28 melanoma) was 11.7 µM. The TGI (SK-MEL-28 melanoma) was greater than 100 µM, the GI50 (PC-3 prostate) was 0.157 µM and the TGI (PC-3 prostate) was greater than 100 µM. For the same molecule, the GI50 (OVCAR-8 ovarian) was 0.202 µM, the TGI (OVCAR-8 ovarian) was greater than 100 µM and the GI50 (SR leukemia) was 31.3 µM. For the same molecule, the TGI (SR leukemia) was greater than 100 µM, the GI50 (HT29 colon) was 0.1 µM and the TGI (HT29 colon) was greater than 100 µM. The GI50 (EKVX NSCLC) was 1.97 µM, the TGI (EKVX NSCLC) was greater than 100 µM and the GI50 (CCRF-CEM leukemia) was 3.39 µM. It also gave a TGI (CCRF-CEM leukemia) greater than 52.3 µM, a GI50 (NCI-H522 lung) of 6.67 µM and a TGI (NCI-H522 lung) greater than 100 µM. The GI50 (SK-MEL-5 melanoma) was 0.547 µM, the TGI (SK-MEL-5 melanoma) was greater than 100 µM and the GI50 (HCT-116 colon) was 0.0549 µM. It also gave a TGI (HCT-116 colon) greater than 100 µM, a TGI (TK-10 renal) greater than 100 µM and a GI50 (NCI/ADR-RES ovarian) of 43 µM. It also gave a TGI (NCI/ADR-RES ovarian) greater than 100 µM, a GI50 (A498 renal) of 11.2 µM and a TGI (A498 renal) greater than 100 µM. For the same molecule, the GI50 (U251 CNS) was 0.0887 µM, the TGI (U251 CNS) was greater than 100 µM and the GI50 (MDA-MB-231 breast) was greater than 100 µM. For the same molecule, the TGI (MDA-MB-231 breast) was greater than 100 µM, the GI50 (NCI-H460 lung) was 0.0919 µM and the TGI (NCI-H460 lung) was greater than 100 µM. It also gave a GI50 (UACC-62 melanoma) of 0.612 µM, a TGI (UACC-62 melanoma) greater than 100 µM and a GI50 (OVCAR-5 ovarian) of 0.252 µM. For the same molecule, the TGI (OVCAR-5 ovarian) was greater than 100 µM, the GI50 (SK-OV-3 ovarian) was 0.83 µM and the TGI (SK-OV-3 ovarian) was greater than 100 µM. The GI50 (SNB-75 CNS) was 18.7 µM, the TGI (SNB-75 CNS) was greater than 81.3 µM and the GI50 (IGROV1 ovarian) was 0.356 µM. The TGI (IGROV1 ovarian) was greater than 100 µM, the GI50 (HCT-15 colon) was 1.37 µM and the TGI (HCT-15 colon) was greater than 100 µM. The GI50 (HL-60(TB) leukemia) was 6.27 µM, the TGI (HL-60(TB) leukemia) was greater than 100 µM and the GI50 (HOP-92 NSCLC) was 47.1 µM. It also gave a TGI (HOP-92 NSCLC) greater than 100 µM, a GI50 (OVCAR-4 ovarian) of 10.9 µM and a TGI (OVCAR-4 ovarian) greater than 100 µM. It also gave a GI50 (SF-539 CNS) of 0.201 µM, a TGI (SF-539 CNS) greater than 54 µM and a TGI (RPMI-8226 leukemia) greater than 100 µM. For the same molecule, the GI50 (SW-620 colon) was 0.0966 µM, the TGI (SW-620 colon) was greater than 100 µM and the GI50 (OVCAR-3 ovarian) was 5.27 µM. For the same molecule, the TGI (OVCAR-3 ovarian) was greater than 100 µM, the GI50 (MALME-3M melanoma) was 32 µM and the TGI (MALME-3M melanoma) was greater than 100 µM. The GI50 (SN12C renal) was 0.694 µM, the TGI (SN12C renal) was greater than 100 µM and the GI50 (BT-549 breast) was 6.66 µM. It also gave a TGI (BT-549 breast) greater than 100 µM, a GI50 (A549 NSCLC) of 0.152 µM and a TGI (A549 NSCLC) greater than 100 µM. For the same molecule, the GI50 (UACC-257 melanoma) was greater than 41.6 µM, the TGI (UACC-257 melanoma) was greater than 100 µM and the GI50 (ACHN renal) was 0.683 µM. For the same molecule, the TGI (ACHN renal) was greater than 100 µM, the GI50 (HCC-2998 colon) was 0.508 µM and the TGI (HCC-2998 colon) was greater than 40.7 µM. The GI50 (RXF 393 renal) was 29.1 µM, the TGI (RXF 393 renal) was greater than 100 µM and the GI50 (LOX IMVI melanoma) was 0.0879 µM. It also gave a TGI (LOX IMVI melanoma) greater than 100 µM, a GI50 (DU-145 prostate) of 0.523 µM and a TGI (DU-145 prostate) greater than 100 µM. For the same molecule, the GI50 (M14 melanoma) was 0.441 µM, the TGI (M14 melanoma) was greater than 100 µM and the GI50 (UO-31 renal) was 13.5 µM. It also gave a TGI (UO-31 renal) greater than 100 µM, a GI50 (786-0 renal) of 0.072 µM and a TGI (786-0 renal) greater than 100 µM. For the same molecule, the GI50 (MOLT-4 leukemia) was 1.38 µM, the TGI (MOLT-4 leukemia) was greater than 100 µM and the GI50 (SF-268 CNS) was 0.0566 µM. The TGI (SF-268 CNS) was greater than 100 µM, the GI50 (HOP-62 NSCLC) was 0.533 µM and the TGI (HOP-62 NSCLC) was greater than 100 µM. For the same molecule, the GI50 (MCF7 breast) was 0.388 µM, the TGI (MCF7 breast) was greater than 100 µM and the GI50 (SNB-19 CNS) was 1 µM. It also gave a TGI (SNB-19 CNS) greater than 100 µM, a GI50 (SF-295 CNS) of 0.304 µM and a GI50 (MDA-MB-435) of 0.0644 µM. It also gave a TGI (MDA-MB-435) greater than 100 µM.
